Measurements published in patent publication EP4227307A1 (Genzyme Corporation, priority 2022, dated 2023).
Counter-ions that a name gives are not always drawn.

Target: T1, human recombinant 6His-Nterm SHP2 full-length (Thr2-Arg593) (Homo sapiens, UniProt Q06124)
T1 construct: 6His-Nterm SHP2 full-length (Thr2-Arg593, R&D system); 6His (N); purchased R&D system
T1 sequence (Q06124 2-593): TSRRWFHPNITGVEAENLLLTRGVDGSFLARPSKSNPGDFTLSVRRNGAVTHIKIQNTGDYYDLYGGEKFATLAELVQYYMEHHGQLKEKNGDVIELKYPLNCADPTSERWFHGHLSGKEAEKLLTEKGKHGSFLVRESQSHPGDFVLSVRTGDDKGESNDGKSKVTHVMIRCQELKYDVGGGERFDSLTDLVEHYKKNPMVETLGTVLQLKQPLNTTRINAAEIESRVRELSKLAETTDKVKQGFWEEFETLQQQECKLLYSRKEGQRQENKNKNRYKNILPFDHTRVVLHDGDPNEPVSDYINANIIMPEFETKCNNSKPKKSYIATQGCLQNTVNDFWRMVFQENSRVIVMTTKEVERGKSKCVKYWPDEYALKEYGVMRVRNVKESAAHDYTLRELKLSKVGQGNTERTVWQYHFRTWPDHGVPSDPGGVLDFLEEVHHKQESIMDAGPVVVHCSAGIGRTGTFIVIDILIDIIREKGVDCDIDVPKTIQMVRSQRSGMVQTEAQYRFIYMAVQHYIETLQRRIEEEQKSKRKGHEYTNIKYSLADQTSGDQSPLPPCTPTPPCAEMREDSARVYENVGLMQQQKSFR
Assay: SHP2 Phosphatase Assay (DiFMUP fluorescence)
Type: biochemical
Settings: SHP2 0.2 nM pre-incubated with 100 nM bi-phosphorylated activating peptide; compound 1000-0.05 nM, 30 min pre-incubation; DiFMUP 20 µM, 45 min, room temperature; 10-concentration dose-response
In short: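 SHP2 (0.2 nM) preactivated ≥10 min with 100 nM bis-phosphorylated peptide, then 30 min with compound (10 concentrations, 1000–0.05 nM) at room temperature, pH 7.2 HEPES buffer with DTT. DiFMUP (20 µM, added solution) reacted 45 min, pervanadate-stopped; fluorescence 350/450 nm. IC50 by 4-parameter logistic fit.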

Compound	IC50 [µM]
CCn1cc(-c2c(C)nc(N3CCC4(CC3)Cc3ncccc3[C@H]4N)c3ccnn23)cn1 [Compound 48, (5S)-1'-[7-(1-ethylpyrazol-4-yl)-6-methyl-pyrazolo[1,5-a]pyrazin-4-yl]spiro[5,7-dihydrocyclopenta[b]pyridine-6,4'-piperidine]-5-amine]	0.017
Cc1nccc(-c2c(C)nc(N3CCC4(CC3)Cc3ncccc3[C@H]4N)c3c(F)cnn23)c1Cl [Compound 144, (5S)-1'-[7-(3-chloro-2-methyl-4-pyridyl)-3-fluoro-6-methyl-pyrazolo[1,5-a]pyrazin-4-yl]spiro[5,7-dihydrocyclopenta[b]pyridine-6,4'-piperidine]-5-amine hydrochloride]	0.017
Cc1nc(N2CCC3(CC2)Cc2ncccc2[C@H]3N)c2c(F)cnn2c1-c1ccccc1F [Compound 142, (5S)-1'-[3-fluoro-7-(2-fluorophenyl)-6-methyl-pyrazolo [1,5-a]pyrazin-4-yl]spiro[5,7-dihydrocyclopenta[b]pyridine-6,4'-piperidine]-5-amine hydrochloride]	0.026
COc1c(F)cccc1-c1c(C)nc(N2CCC3(CC2)Cc2ncccc2[C@H]3N)c2ccnn12 [Compound 200]	0.044
Cc1cccc(-c2c(C)nc(N3CCC4(CC3)Cc3ncccc3[C@H]4N)c3ccnn23)c1F [Compound 166, (5S)-1'-[7-(2-fluoro-3-methyl-phenyl)-6-methyl-pyrazolo[1,5-a]pyrazin-4-yl]spiro[5,7-dihydrocyclopenta[b]pyridine-6,4'-piperidine]-5-amine]	0.007
Cc1nocc1-c1c(C)nc(N2CCC3(CC2)Cc2ccccc2[C@H]3N)c2ccnn12 [Compound 21, (1S)-1'-[6-methyl-7-(3-methylisoxazol-4-yl)pyrazolo[1,5-a]pyrazin-4-yl]spiro[indane-2,4'-piperidine]-1-amine]	0.058
COc1ccc2c(c1)[C@@H](N)C1(CCN(c3nc(C)c(-c4cccc(F)c4Cl)n4nccc34)CC1)C2 [Compound 9, (1S)-1'-[7-(2-chloro-3-fluorophenyl)-6-methyl-pyrazolo[1,5-a]pyrazin-4-yl]-6-methoxy-spiro[indane-2,4'-piperidine]-1-amine hydrochloride]	0.043
N[C@@H]1c2cccnc2CC12CCN(c1ncc(-c3cccc(F)c3F)n3nccc13)CC2 [Compound 26, (5S)-1'-[7-(2,3-difluorophenyl)pyrazolo[1,5-a]pyrazin-4-yl]spiro[5,7-dihydrocyclopenta[b]pyridine-6,4'-piperidine] -5-amine formate]	0.023
COc1cnc2c(c1)[C@@H](N)C1(CCN(c3nc(C)c(-c4ccnc(C)c4Cl)n4nccc34)CC1)C2 [Compound 23, (5S)-1'-[7-(3-chloro-2-methyl-4-pyridyl)-6-methyl-pyrazolo[1,5-a]pyrazin-4-yl]-3-methoxy-spiro[5,7-dihydrocyclopenta[b]pyridine-6,4'-piperidine]-5-amine]	0.01
Cc1nccc(-c2c(C)nc(N3CCC4(CC3)Cc3ncsc3[C@H]4N)c3ccnn23)c1Cl [Compound 73, (6S)-1'-[7-(3-chloro-2-methyl-4-pyridyl)-6-methyl-pyrazolo[1,5-a]pyrazin-4-yl]spiro[4,6-dihydrocyclopenta[d]thiazole-5,4'-piperidine]-6-amine hydrochloride]	0.005
COc1nccc(-c2c(C)nc(N3CCC4(CC3)Cc3ncccc3[C@H]4N)c3ccnn23)c1Cl [Compound 108, (5S)-1'-[7-(3-chloro-2-methoxy-4-pyridyl)-6-methyl-pyrazolo[1,5-a]pyrazin-4-yl]spiro[5,7-dihydrocyclopenta[b]pyridine-6,4'-piperidine]-5-amine]	0.006
COc1cc2c(cn1)[C@@H](N)C1(CCN(c3nc(C)c(-c4ccnc(C)c4Cl)n4nccc34)CC1)C2 [Compound 121, (7S)-1'-[7-(3-chloro-2-methyl-4-pyridyl)-6-methyl-pyrazolo[1,5-a]pyrazin-4-yl]-3-methoxy-spiro [5,7-dihydrocyclopenta[c]pyridine-6,4'-piperidine]-7-amine]	0.008
